Values joined by “and” are separate entries in the source; they are usually repeats but may differ in a detail not shown here. Equal values may be shown once.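 Following 48 hours of exposure in 96-well plates, responses at five concentrations were used to interpolate endpoints linearly. Abbreviation: GI50, concentration required for 50% inhibition of growth. TGI: concentration producing complete growth inhibition.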 Some results are limits rather than exact numbers.

For the first assay, the system named is NCI/ADR-RES ovarian. Description: inhibition of tumour cell growth, NCI panel, 48 h.
`CC[C@H]1CN2CCc3cc(OC)c(OC)cc3[C@@H]2C[C@@H]1C[C@H]1NCCc2cc(OC)c(OC)cc21` showed a TGI of 0.502 µM.

A further assay deals with NCI-H522 lung. The assay can be described thus: inhibition of tumour cell growth, NCI panel, 48 h.
`CC(C(=O)n1nnc2ccccc21)N(c1ccccc1)c1ccccc1` (stereo not drawn) had a TGI greater than 100 µM.

Take `CC[C@H]1CN2CCc3cc(OC)c(OC)cc3[C@@H]2C[C@@H]1C[C@H]1NCCc2cc(OC)c(OC)cc21`: the TGI was 0.0392 µM and 0.0356 µM.

As for `O=C1C=CC(=O)N1Nc1ccc([N+](=O)[O-])cc1[N+](=O)[O-]`, the TGI is greater than 58.9 µM.

With `O=C(NC12CC3CC(CC(C3)C1)C2)C(=O)c1c[nH]c2ccc(Cl)cc12`, the TGI is greater than 100 µM.

The next assay has as its system KM12 colon. The assay can be described thus: inhibition of tumour cell growth, NCI panel, 48 h.
In turn, `CC[C@H]1CN2CCc3cc(OC)c(OC)cc3[C@@H]2C[C@@H]1C[C@H]1NCCc2cc(OC)c(OC)cc21` came in with a TGI of 0.138 µM.

`O=C1C=CC(=O)N1Nc1ccc([N+](=O)[O-])cc1[N+](=O)[O-]`: the TGI is greater than 100 µM.

`O=C(NC12CC3CC(CC(C3)C1)C2)C(=O)c1c[nH]c2ccc(Cl)cc12` had a TGI greater than 100 µM.

The test system of the next assay is T-47D breast. The assay can be described thus: inhibition of tumour cell growth, NCI panel, 48 h.
In the case of `CC[C@H]1CN2CCc3cc(OC)c(OC)cc3[C@@H]2C[C@@H]1C[C@H]1NCCc2cc(OC)c(OC)cc21`, the TGI amounted to 0.0887 µM.

The test system of a further assay is LXFL 529 NSCLC. Description: inhibition of tumour cell growth, NCI panel, 48 h.
Consider `CC(C(=O)n1nnc2ccccc21)N(c1ccccc1)c1ccccc1` (stereo not drawn), for which the TGI was greater than 100 µM.

In turn, `O=C1C=CC(=O)N1Nc1ccc([N+](=O)[O-])cc1[N+](=O)[O-]` displayed a TGI greater than 64.6 µM.

Turning to `O=C(NC12CC3CC(CC(C3)C1)C2)C(=O)c1c[nH]c2ccc(Cl)cc12`, the TGI is greater than 100 µM.

A further assay concerns HOP-92 NSCLC. The assay can be described thus: inhibition of tumour cell growth, NCI panel, 48 h.
For `CC[C@H]1CN2CCc3cc(OC)c(OC)cc3[C@@H]2C[C@@H]1C[C@H]1NCCc2cc(OC)c(OC)cc21`, the TGI was 0.196 µM and 0.0779 µM.

With `O=C1C=CC(=O)N1Nc1ccc([N+](=O)[O-])cc1[N+](=O)[O-]`, the TGI is greater than 77 µM.

As to `O=C(NC12CC3CC(CC(C3)C1)C2)C(=O)c1c[nH]c2ccc(Cl)cc12`, the TGI stood at 53.2 µM.

Another assay has as its system NCI-H226 lung. The assay can be described thus: inhibition of tumour cell growth, NCI panel, 48 h.
Consider `CC(C(=O)n1nnc2ccccc21)N(c1ccccc1)c1ccccc1` (stereo not drawn), for which the TGI is greater than 100 µM.

Take `CC[C@H]1CN2CCc3cc(OC)c(OC)cc3[C@@H]2C[C@@H]1C[C@H]1NCCc2cc(OC)c(OC)cc21`: the TGI was 0.164 µM and 0.476 µM.

Turning to `O=C1C=CC(=O)N1Nc1ccc([N+](=O)[O-])cc1[N+](=O)[O-]`, the TGI is greater than 100 µM.

With `O=C(NC12CC3CC(CC(C3)C1)C2)C(=O)c1c[nH]c2ccc(Cl)cc12`, the TGI was greater than 100 µM.

For the next assay, the system named is SF-539 CNS. The assay can be described thus: inhibition of tumour cell growth, NCI panel, 48 h.
The compound `CC(C(=O)n1nnc2ccccc21)N(c1ccccc1)c1ccccc1` (stereo not drawn) yielded a TGI greater than 100 µM.

Take `O=C1C=CC(=O)N1Nc1ccc([N+](=O)[O-])cc1[N+](=O)[O-]`: the TGI was greater than 100 µM.

In turn, `O=C(NC12CC3CC(CC(C3)C1)C2)C(=O)c1c[nH]c2ccc(Cl)cc12` came in with a TGI greater than 100 µM.

The next assay relates to MDA-MB-435. Description: inhibition of tumour cell growth, NCI panel, 48 h.
As for `CC[C@H]1CN2CCc3cc(OC)c(OC)cc3[C@@H]2C[C@@H]1C[C@H]1NCCc2cc(OC)c(OC)cc21`, the TGI turned out to be 0.0442 µM.

For another assay, the system named is MDA-MB-231 breast. Description: inhibition of tumour cell growth, NCI panel, 48 h.
`CC[C@H]1CN2CCc3cc(OC)c(OC)cc3[C@@H]2C[C@@H]1C[C@H]1NCCc2cc(OC)c(OC)cc21`: the TGI was 0.0458 µM.

The next assay deals with DLD-1 colon. The assay can be described thus: inhibition of tumour cell growth, NCI panel, 48 h.
For `CC(C(=O)n1nnc2ccccc21)N(c1ccccc1)c1ccccc1` (stereo not drawn), the TGI was greater than 100 µM.

In the case of `CC[C@H]1CN2CCc3cc(OC)c(OC)cc3[C@@H]2C[C@@H]1C[C@H]1NCCc2cc(OC)c(OC)cc21`, the TGI is 0.591 µM and 0.408 µM.

With `O=C1C=CC(=O)N1Nc1ccc([N+](=O)[O-])cc1[N+](=O)[O-]`, the TGI is greater than 100 µM.

The test system of a further assay is CCRF-CEM leukemia. Description: inhibition of tumour cell growth, NCI panel, 48 h.
In turn, `CC(C(=O)n1nnc2ccccc21)N(c1ccccc1)c1ccccc1` (stereo not drawn) showed a TGI greater than 100 µM.

In the case of `CC[C@H]1CN2CCc3cc(OC)c(OC)cc3[C@@H]2C[C@@H]1C[C@H]1NCCc2cc(OC)c(OC)cc21`, the GI50 was 0.0215 µM and the TGI came to 0.0656 µM.

`O=C1C=CC(=O)N1Nc1ccc([N+](=O)[O-])cc1[N+](=O)[O-]`: the TGI was greater than 34.3 µM.

Turning to `O=C(NC12CC3CC(CC(C3)C1)C2)C(=O)c1c[nH]c2ccc(Cl)cc12`, the TGI was greater than 100 µM.

Another assay has as its system MDA-N. Description: inhibition of tumour cell growth, NCI panel, 48 h.
As for `CC[C@H]1CN2CCc3cc(OC)c(OC)cc3[C@@H]2C[C@@H]1C[C@H]1NCCc2cc(OC)c(OC)cc21`, the TGI turned out to be 0.0589 µM.

In the next assay the test system is COLO 205 colon. The assay can be described thus: inhibition of tumour cell growth, NCI panel, 48 h.
The compound `CC(C(=O)n1nnc2ccccc21)N(c1ccccc1)c1ccccc1` (stereo not drawn) returned a TGI greater than 100 µM.

On to `CC[C@H]1CN2CCc3cc(OC)c(OC)cc3[C@@H]2C[C@@H]1C[C@H]1NCCc2cc(OC)c(OC)cc21`, for which the TGI was 0.0283 µM and 0.0201 µM.

Consider `O=C1C=CC(=O)N1Nc1ccc([N+](=O)[O-])cc1[N+](=O)[O-]`, for which the TGI was greater than 60.7 µM.

Turning to `O=C(NC12CC3CC(CC(C3)C1)C2)C(=O)c1c[nH]c2ccc(Cl)cc12`, the TGI was greater than 100 µM.

For a further assay, the system named is SK-MEL-5 melanoma. Description: inhibition of tumour cell growth, NCI panel, 48 h.
On to `CC(C(=O)n1nnc2ccccc21)N(c1ccccc1)c1ccccc1` (stereo not drawn), for which the TGI is greater than 100 µM.

Consider `CC[C@H]1CN2CCc3cc(OC)c(OC)cc3[C@@H]2C[C@@H]1C[C@H]1NCCc2cc(OC)c(OC)cc21`, for which the TGI was 0.0701 µM and 0.0855 µM.

In turn, `O=C1C=CC(=O)N1Nc1ccc([N+](=O)[O-])cc1[N+](=O)[O-]` came in with a TGI greater than 100 µM.

In turn, `O=C(NC12CC3CC(CC(C3)C1)C2)C(=O)c1c[nH]c2ccc(Cl)cc12` registered a TGI greater than 100 µM.

The next assay concerns NCI-H23 lung. Description: inhibition of tumour cell growth, NCI panel, 48 h.
Regarding `CC(C(=O)n1nnc2ccccc21)N(c1ccccc1)c1ccccc1` (stereo not drawn), the TGI was greater than 100 µM.

`CC[C@H]1CN2CCc3cc(OC)c(OC)cc3[C@@H]2C[C@@H]1C[C@H]1NCCc2cc(OC)c(OC)cc21`: the TGI was 0.14 µM and 0.026 µM.

For the compound `O=C1C=CC(=O)N1Nc1ccc([N+](=O)[O-])cc1[N+](=O)[O-]`, the TGI is greater than 100 µM.

The compound `O=C(NC12CC3CC(CC(C3)C1)C2)C(=O)c1c[nH]c2ccc(Cl)cc12` had a TGI greater than 100 µM.

The next assay has as its system K-562 leukemia. Description: inhibition of tumour cell growth, NCI panel, 48 h.
Compound `CC(C(=O)n1nnc2ccccc21)N(c1ccccc1)c1ccccc1` (stereo not drawn) returned a TGI greater than 100 µM.

The compound `CC[C@H]1CN2CCc3cc(OC)c(OC)cc3[C@@H]2C[C@@H]1C[C@H]1NCCc2cc(OC)c(OC)cc21` gave a TGI of 0.0932 µM.

With `O=C1C=CC(=O)N1Nc1ccc([N+](=O)[O-])cc1[N+](=O)[O-]`, the TGI is greater than 66.2 µM.

The compound `O=C(NC12CC3CC(CC(C3)C1)C2)C(=O)c1c[nH]c2ccc(Cl)cc12` had a TGI greater than 100 µM.

The next assay deals with HT29 colon. The assay can be described thus: inhibition of tumour cell growth, NCI panel, 48 h.
Compound `CC(C(=O)n1nnc2ccccc21)N(c1ccccc1)c1ccccc1` (stereo not drawn) displayed a TGI greater than 100 µM.

On to `CC[C@H]1CN2CCc3cc(OC)c(OC)cc3[C@@H]2C[C@@H]1C[C@H]1NCCc2cc(OC)c(OC)cc21`, for which the TGI is 0.242 µM and 0.168 µM.

On to `O=C1C=CC(=O)N1Nc1ccc([N+](=O)[O-])cc1[N+](=O)[O-]`, for which the TGI is greater than 100 µM.

`O=C(NC12CC3CC(CC(C3)C1)C2)C(=O)c1c[nH]c2ccc(Cl)cc12` displayed a TGI greater than 100 µM.

Values taken from PubChem BioAssay (NCI).
